The record followed here is publication PMC11118615, “Cloning, Expression, Characterization and Immobilization of a Recombinant Carboxylesterase from the Halophilic Archaeon, Halobacterium salinarum NCR-1” (Biomolecules, 2024).

Each structure is given as a SMILES string.

The target of the test is T1, rHsEst (recombinant carboxylesterase HsEst) (Halobacterium salinarum, UniProt Q9HPT9).
T1 construct: gene est; synthetic gene in pTA1392, N-terminal 6xHis-tag, expressed in Haloferax volcanii H1209, HisTrap purified
T1 sequence (Q9HPT9 entry or part of it): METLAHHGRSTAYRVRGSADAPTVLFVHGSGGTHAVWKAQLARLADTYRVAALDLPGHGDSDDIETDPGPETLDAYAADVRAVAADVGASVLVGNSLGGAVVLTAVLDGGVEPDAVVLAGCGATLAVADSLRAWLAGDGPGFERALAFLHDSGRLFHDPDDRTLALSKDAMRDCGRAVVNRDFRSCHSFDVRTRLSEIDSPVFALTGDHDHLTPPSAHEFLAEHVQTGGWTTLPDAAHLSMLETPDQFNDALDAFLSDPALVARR
Nature of the test: spectrophotometric p-nitrophenol release, Michaelis-Menten nonlinear fit. In kind it is biochemical. The settings on record: free enzyme; pH 8.0 Tris-HCl, 1 M NaCl, 30 °C (methods print 25 °C). From the text:
spectrophotometric p-nitrophenol release, Michaelis-Menten nonlinear fit on rHsEst (recombinant carboxylesterase HsEst)
Broadly, the Km is the substrate concentration at which the rate is half of its maximum. As to `CCCCCCCC(=O)Oc1ccc([N+](=O)[O-])cc1` [pNPC8, p-nitrophenyl octanoate], the Michaelis constant (Km) amounted to 245 ± 26 µM.

Turning to `CCCCC(=O)Oc1ccc([N+](=O)[O-])cc1` [pNPC5, p-nitrophenyl valerate], the Km amounted to 78 ± 7 µM.

Take `CC(=O)Oc1ccc([N+](=O)[O-])cc1` [pNPC2, p-nitrophenyl acetate]: the Km was 258 ± 51 µM.
